Measured values taken from patent US20240390282A1, “DRUG-LOADED LIPOSOMES AND USES THEREOF IN TREATING BIOFILM” (Yeda Research and Development Co. Ltd., priority 2022, published 2024).

Experiments:
PA14-biofilms = assay: Bacterial viability in biofilms by LIVE/DEAD staining; assay type: cell-based, Pseudomonas aeruginosa; conditions: PA14 biofilm; free SMX 1.5 mg/mL
Experimental: Determination of bacterial viability in biofilms by LIVE/DEAD™ staining: PA14-biofilms were developed on 8 Well p-Slide (ibidi GmbH, Germany). 150 μL of the inoculum was incubated in a humidified incubator for 24 hours at 37° C. without shaking. After 24 hours, the fully formed biofilm was gently washed twice with PBS. 160 μL of liposomal suspension or BM2G medium was added to each well, and subsequently, the samples were incubated at 37° C. for 4 hours. Each well was then washed with PBS, and a second dose (170 μL) of antibacterial treatment was applied for 4 hours with incubation at 37° C. Subsequently, biofilm was washed with 180 μL of PBS buffer, and bacteria cells were stained using a BacLight™ Bacterial Viability Kit@ (Thermo Fisher Scientific™, USA). Live bacterial cells were stained with SYTO™ 9 dye (ex: 486/em: 501) and dead cells were stained with propidium iodide (PI) dye (λEx: 535/λEm: 617), with dyes mixed in 1:1 ratio. […] Later, wells were washed twice with PBS, and images of biofilm were acquired using confocal fluorescence microscopy. Cell viability quantification was performed using ImageJ software v1.52i (NIH, USA). Confocal pictures were acquired using a confocal laser scanning fluorescence microscope LSM700 (ZEISS, Germany). […] Images were recorded in brightfield mode and in confocal mode using 488 excitation and 561 excitation laser channels. […]

[1] = cited from earlier work

Row | SMILES | dead cells (red loci) in words (PA14-biofilms) | LogP [1] | pKa [1]
1 | Cc1cc(NS(=O)(=O)c2ccc(N)cc2)no1 [Sulfamethoxazole (SMX), Sulfamethoxazole] | significant increase in the number of red loci | – | –
2 | O=c1oc2c(O)c(O)cc3c(=O)oc4c(O)c(O)cc1c4c23 [Ellagic acid (EA), Ellagic acid] | – | 1.59-2.32 | 5.8
